# Measured values taken from patent publication US20250170098A1, “MOLECULAR JACKHAMMER FOR MECHANICAL DESTRUCTION OF CELLULAR STRUCTURE” (William Marsh Rice University, priority 2022, published 2025).
# Assays:
# A375 cells [1] = assay: Clonogenic assay; format: cell-based, human
# Experimental: The clonogenic assay was conducted to confirm that cancer cells treated by plasmon-driven MJH are indeed death upon NIR-light activation (FIG. 18). Three molecules were analyzed: the most VDA active BL-204, medium active BL-141-2 and low active Cy7-amine. […] This was accomplished by incubating the MJH molecules with the A375 cells for 50 min and immediately activate the plasmon-driven MJH using 730 nm NIR-light at 80 mW/cm^2 for 10 min. This is considered a short contact time between the MJH and the A375 cells.
# Clonogenic assay. A375 cells were seeded in 35 mm cell culture dishes at predetermined densities to allow for an approximately equal number of resultant colonies. The next day, cells were treated with Cy7.5-amine at variable concentration and with or without 730 nm light at 80 mWcm^−2 for 10 min. The cells were incubated with Cy7.5-amine for 50 min before the illumination, the media was replaced with fresh media after the illumination and cells were cultured for 6 days to allow for colony formation. Cells were then washed once with PBS and fixed-stained in a 0.5% (w/v) crystal violet in methanol/water solution (1:1) during 10 min. The excess of crystal violet was washed off with water, the plates were dried at room temperature and then the colonies were counted using ImageJ software version 1.52a, and the survival fraction was determined. All treatments were in triplicate.
# B16-F10 melanoma tumors = assay: Treatment of B16-F10 melanoma tumors in C57BL/6 mice; format: in vivo, mouse
# Experimental: Injection of B16-F10 cells subcutaneously in C57BL/6J mice to generate the melanoma tumors. The B16-F10 cells were cultured as described before. Cells were harvested from sub-confluent plates, ˜90%, and fresh media was added to the cells the day before harvesting. The cells were harvested using 0.05% trypsin-EDTA (Gibco, 25-300-054). The harvested cells were re-dispersed in DMEM media without supplements at 1×10^6 cells mL^−1. The cell suspension was kept in ice. Then 100 μL of cells were injected per mouse (this was 100,000 cells per mouse) subcutaneously in the right flank of a 7-8-week-old female mouse (C57BL/6J), in which the hair in the right flank was previously depilated using a shaver. […] Starting at day 12 the tumors were measured using a caliper. […] The volume of the tumor was calculated as: (½)×length×width×height. When the height was not possible to measure in the case of the tumors which were too small (usually <100 mm^3), then the tumor volume was calculated as: (½)×length×width^2. […]
# Treatment of B16-F10 tumors with Cy7.5-amine and NIR 730 nm light. […] The light intensity was measured using an Optical Power Meter from Thorlabs, sensor model S302C and console model PM100D. While under light treatment the temperature at the tumor area was measured using an IR thermal camera (Model: Compact Seek Thermal for Android. Seek Thermal, Inc. Santa Barbara, CA). […]
# A375 cells [2] = assay: Crystal violet cell viability assay; format: cell-based, human; conditions: 2 μM; 10 min 730 nm light at 80 mW/cm^2
# Experimental: Crystal violet cell viability assay. The crystal violet assay was used to measures the cell viability. The principle of this method is that the viable cells adhere to the surface of the cell culture dish and keep growing and remain attached through the standard cell culture conditions during a period of 1-2 days and through the staining conditions in the assay. […] For specific details, A375 cells were harvested and counted, and then 20,000 A375 cells per well were added in 24 cell culture well plate (Corning) and cultured for 1 day at standard incubation conditions of 37° C. and 5% CO2. The cells were treated in four experimental groups (4 samples per group): group 1) 0.1% DMSO, group 2) 0.1% DMSO+NIR light treatment, group 3) 2 μM Cy7.5-amine, and group 4) 2 μM Cy7.5-amine+NIR light. The treatments with 0.1% DMSO or 2 μM Cy7.5-amine were done by adding those respective concentrations to the cells in the media and then incubated for 60 min. Immediately after the incubation, the cells in the groups with “+NIR light”, were treated with 730 nm light at 80 mW/cm^2 for 10 min. After the treatment with NIR light, the media in all the groups was removed and fresh media was added. […] Then the crystal violet was quantified by its absorbance at 570 nm. The cell viability was calculated from the absorbance relative to the absorbance in the cells without any treatment. […]
smiles,measurement,setting,value
CN1/C(=C\C=C2C=C(/C=C/C3=[N+](CCCCCC(=O)NCCCCCCN)c4ccc5ccccc5c4C3(C)C)CCC\2)C(C)(C)c2c1ccc1ccccc21 [Cy7.5-amine],"cells eradicated, clonogenic assay","A375 cells [1]; 0.5 μM, 10 min 730 nm light at 80 mWcm^−2",100%
same,"eradication of A375 cells, clonogenic assay (in words)",A375 cells [1]; 1 μM + light (80 mWcm^−2 of 730 nm for 10 min),complete eradication
same,size of the B16-F10 tumors,"B16-F10 melanoma tumors; 8 μg in 50 μL PBS intratumorally, 730 nm LED at for 5 min",significantly reduced
same,temperature increase of B16-F10 tumors under light treatment,"B16-F10 melanoma tumors; Cy7.5-amine with light, for 5 min",~5 °C
same,dead cells by crystal violet assay,A375 cells [2],99.9%
